Experimental data as given in patent EP4680608B1, “2,6-DIHYDRO-7H-PYRAZOLO[3,4-C]PYRIDIN-7-ONE DERIVATIVES AS ANTI-MALARIAL AGENTS” (MMV Medicines for Malaria Venture, priority 2024, dated 2025).

Columns and labels:
[1] = target: T1, P. falciparum DHODH (Plasmodium falciparum, UniProt Q08210); test: DHODH inhibition, steady-state DCIP assay (PfDHODH); assay type: biochemical; conditions: recombinant PfDHODH, DCIP method, 25°C, 5 nM enzyme
T1 construct: His6 (N); made in house; host or cells: E. coli BL21-DE3 (phage-resistant)
Procedure: (§1) Compound stocks were prepared at 10-100 mM in DMSO, and diluted working stocks in DMSO were generated as appropriate. Compounds were plated from DMSO stocks in 96 well plate format using a Tecan D300e digital dispenser to generate a 3-fold dilution series over a concentration range of 0.0003 -100 µM (or 30 µM), yielding a final DMSO concentration of 1% in the assay. The top concentration used in the dose response was determined by the initial DMSO stock concentrations:100 µM for 100 mM stocks, and 30 µM for 10 mM stocks. Triplicate rate data were collected at each inhibitor concentration. Inhibitory IC50 values were determined by fitting the data to log (inhibitor) vs response equation Y = bottom + (top - bottom)/(1 + 10A ((X - Log IC50))) in GraphPad Prism.

[2] = test system: P. falciparum 3D7; test: Asexual blood-stage growth inhibition assay, SYBR green method; assay type: cell-based; conditions: ring-stage 3D7 parasites
Procedure: Asexual blood-stage EC50 assays. […] Compound stocks prepared in DMSO were plated using a Tecan D300e automated low volume liquid handler. Ring-stage 3D7 or Dd2 parasites (60 µL cells) (2% hematocrit, 0.5% parasitemia, final DMSO concentration 0.5%) were added to plates, incubated with compounds over a range of concentrations in technical triplicate for 72 h at 37 °C, 5% CO2, and then frozen (-80°C) overnight before analysis. […] Data were analyzed by non-linear regression using GraphPad Prism to determine the EC50 by fitting to the built-in equation (log(inhibitor) vs response-variable slope with four parameters).

[3] = target: P. vivax DHODH (Plasmodium vivax, UniProt A5K1N1); test: DHODH inhibition, steady-state DCIP assay (PvDHODH); assay type: biochemical; conditions: recombinant PvDHODH, DCIP method, 25°C, 5 nM enzyme; read-out: P. vivax DHODH (IC50)
Excerpt: (§2) DOI: 10.1074/jbc.M206854200).
(§3) Proteins were expressed and purified on a Pharmacia FPLC using HisTrap HP column chromatography followed by gel filtration chromatography on a Pharmacia HiLoad 16/600 Superdex 200 column, and protein concentration determined based on OD280 using the previously described extinction coefficients (Kokkonda et al., 2020, J Med Chem, 63 (9), 4929-4956. DOI: 10.1021/acs.jmedchem.0c00311). Purified proteins were >95% pure based on SDS-PAGE analysis.
(§4) DHODH activity was monitored in a steady-state assay using the 2,6-dichloroindophenol (DCIP) method at 25°C in assay buffer (100 mM HEPES, pH 8.0, 150 mM NaCl, 1% glycerol, 0.1% Triton X-100 reduced) plus substrates 20 µM CoQD, 200 µM DHO, 120 µM DCIP, and 5 nM enzyme as previously described (Malmquist et al, 2008, Biochemistry, 47 (8), 2466-2475. DOI: 10.1021/bi702218c).
as §1, with “Prism. DSM265 ^2 was plated as an assay control in all studies.” for “Prism.”

[4] = target: T2, Human DHODH (Homo sapiens, UniProt Q02127); test: DHODH inhibition, steady-state DCIP assay (human DHODH); assay type: biochemical; conditions: recombinant HsDHODH, DCIP method, 25°C, 5 nM enzyme; top concentration 100 µM or 30 µM
T2 construct: C-terminal His6-tagged HsDHODH residues 29-395 in pET-22b (start ^29MATGDE); His6 (C); made in house; host or cells: E. coli BL21-DE3 (phage-resistant)
Excerpt: as §2, §3, §4
as §1, with “Prism. DSM265 ^2 was plated as an assay control in all studies.” for “Prism.”

[5] = Plasmodium falciparum, 3D7, 72 h

Sequence of P. vivax DHODH (A5K1N1 entry or part of it): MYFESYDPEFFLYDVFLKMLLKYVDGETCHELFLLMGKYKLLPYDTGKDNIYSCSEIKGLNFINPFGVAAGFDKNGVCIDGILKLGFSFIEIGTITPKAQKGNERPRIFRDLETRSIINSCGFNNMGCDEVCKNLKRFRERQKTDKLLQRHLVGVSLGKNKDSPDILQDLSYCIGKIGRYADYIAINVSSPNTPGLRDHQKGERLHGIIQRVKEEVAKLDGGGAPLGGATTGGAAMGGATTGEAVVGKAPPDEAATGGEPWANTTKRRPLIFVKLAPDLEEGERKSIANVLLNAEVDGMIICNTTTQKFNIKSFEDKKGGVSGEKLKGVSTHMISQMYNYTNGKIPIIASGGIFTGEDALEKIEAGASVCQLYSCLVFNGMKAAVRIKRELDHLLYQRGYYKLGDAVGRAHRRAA
T2 sequence (Q02127 29-395): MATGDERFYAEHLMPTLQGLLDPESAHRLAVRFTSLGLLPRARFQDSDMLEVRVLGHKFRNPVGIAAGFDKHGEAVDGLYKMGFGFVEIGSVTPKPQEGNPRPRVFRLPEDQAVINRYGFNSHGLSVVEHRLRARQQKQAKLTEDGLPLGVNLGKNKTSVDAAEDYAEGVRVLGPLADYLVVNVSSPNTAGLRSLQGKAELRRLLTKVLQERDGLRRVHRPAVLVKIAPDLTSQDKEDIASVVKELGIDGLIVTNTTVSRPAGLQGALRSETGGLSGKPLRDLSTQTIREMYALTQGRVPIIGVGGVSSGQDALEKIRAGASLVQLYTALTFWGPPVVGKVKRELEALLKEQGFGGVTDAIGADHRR
T1 sequence (Q08210 158-569): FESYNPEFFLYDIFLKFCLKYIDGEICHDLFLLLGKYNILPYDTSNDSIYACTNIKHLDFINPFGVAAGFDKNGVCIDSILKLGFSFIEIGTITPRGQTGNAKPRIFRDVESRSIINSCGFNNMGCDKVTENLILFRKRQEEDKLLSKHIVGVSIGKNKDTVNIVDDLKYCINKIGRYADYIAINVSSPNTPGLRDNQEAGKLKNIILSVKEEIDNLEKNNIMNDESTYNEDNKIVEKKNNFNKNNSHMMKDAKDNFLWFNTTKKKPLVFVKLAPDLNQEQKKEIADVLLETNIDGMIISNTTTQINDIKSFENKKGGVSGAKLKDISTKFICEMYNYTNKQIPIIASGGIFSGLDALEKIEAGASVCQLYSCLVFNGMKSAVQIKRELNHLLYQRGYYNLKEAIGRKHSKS

Structure (SMILES) | IC50 [1] [nM] | EC50 [2, 5] [nM] | IC50 [3] [nM] | IC50 [4] [nM] | EC50 ([2]; 72 h) [nM]
CC[C@@](N)(c1cnc(C(F)(F)F)c(Cl)c1)c1c2ncn(C3CC3)c(=O)c2nn1C (single isomer, unassigned) [4-27] | 47 | 6.5 | 40 | > 30000 | 
CC[C@@](O)(c1ccc(C(F)(F)F)c(C#N)c1)c1c2ccn(C3CC3)c(=O)c2nn1C (single isomer, unassigned) [1-5] | 17 | 0.75 | 21 | 910 | 
Cn1nc2c(=O)n(C3CC3)ncc2c1[C@](O)(c1ccc(C(F)(F)F)c(Cl)c1)C1CC1 (single isomer, unassigned) [2-11] | 9.6 | 1.9 | 9.9 | > 30000 | 
CCn1cnc2c([C@](C)(O)c3ccc(C(F)(F)F)c(C#N)c3)n(C)nc2c1=O (single isomer, unassigned) [3-11] | 32 | 0.52 | 9.4 | > 100000 | 
CCn1ccc2c([C@](O)(c3ccc(F)c(Cl)c3)C3CC3)n(C)nc2c1=O (single isomer, unassigned) [1-38] | 17 | 1.5 | 4.3 | 88000 | 
Cn1nc2c(=O)n(C3CC3)cnc2c1[C@](N)(c1ccc(C(F)(F)F)c(C#N)c1)C(F)(F)F (single isomer, unassigned) [5-40] | 18 | 3.1 | 22 | > 30000 | 
Cn1nc2c(=O)n(CC(F)(F)F)cnc2c1[C@](O)(c1ccc(C(F)(F)F)c(Cl)c1)C(F)(F)F [5-26, (R)-3-(1-(3-chloro-4-(trifluoromethyl)phenyl)-2,2,2-trifluoro-1-hydroxyethyl)-2-methyl-6-(2,2,2-trifluoroethyl)-2,6-dihydro-7H-pyrazolo[4,3-d]pyrimidin-7-one] | 17 | 0.39 | 25 | > 30000 | 
Cn1nc2c(=O)n(C3CC3)cnc2c1[C@](O)(c1cnc(C(F)(F)F)c(Cl)c1)C(F)F (single isomer, unassigned) [5-22] | 11 | 6.1 | 7.7 | 22000 | 
CC[C@@](O)(c1ccc(F)c(Cl)c1)c1c2ccn(C3CC3)c(=O)c2nn1C (single isomer, unassigned) [1-13] | 7 | 0.49 | 11 | 670 | 
CCn1ccc2c([C@](C)(O)c3ccc(F)c(Cl)c3)n(C)nc2c1=O (single isomer, unassigned) [1-40] | 17 | 0.42 | 5.2 | 80000 | 
CC[C@@](O)(c1ccc(C(F)(F)F)nc1)c1c2ncn(C3CC3)c(=O)c2nn1C (single isomer, unassigned) [3-7] | 27 | 1.6 | 55 | 14000 | 
CC[C@@](N)(c1ccc(C(F)(F)F)c(Cl)c1)c1c2ncn(C3CC3)c(=O)c2nn1C (single isomer, unassigned) [4-26] | 9.5 | 0.91 | 5.2 | 1400 | 
CCn1cc(C2CC2)c2c([C@H](O)c3cnc(C(F)(F)F)c(Cl)c3)n(C)nc2c1=O (single isomer, unassigned) [1-28] | 26 | 4.6 | 11 | > 100000 | 
Cn1nc2c(=O)n(C3CC3)ccc2c1[C@](N)(c1cnc(C(F)(F)F)c(Cl)c1)C(F)(F)F (single isomer, unassigned) [4-1] | 21 | 2.6 | 13 | > 30000 | 
Cn1nc2c(=O)n(C3CC3)cnc2c1[C@](O)(c1ccc(C(F)(F)F)c(C#N)c1)C(F)(F)F (single isomer, unassigned) [5-19] | 12 |  | 20 | 17000 | 0.35
Cn1nc2c(=O)n(C3CC3)ccc2c1[C@](N)(c1ccc(C(F)(F)F)c(C#N)c1)C(F)(F)F (single isomer, unassigned) [5-45] | 8.2 | 0.85 | 8.5 | 30000 | 
Cn1nc2c(=O)n(C3CC3)ccc2c1[C@](C)(O)c1ccc(F)c(Cl)c1 (single isomer, unassigned) [1-9] | 16 | 0.92 | 6.9 | 14000 | 
CC(C)n1cnc2c([C@](O)(c3ccc(C(F)(F)F)c(Cl)c3)C(F)(F)F)n(C)nc2c1=O (single isomer, unassigned) [5-32] | 5 | 0.25 | 8.5 | 14000 | 
CCn1ccc2c([C@](C)(O)c3ccc(C(F)(F)F)c(Cl)c3)n(C)nc2c1=O (single isomer, unassigned) [1-46] | 10 | 0.2 | 5.8 | 41000 | 
CCn1nc2c(=O)n(C3CC3)ncc2c1[C@@](O)(CC)c1cnc(C(F)(F)F)c(Cl)c1 (single isomer, unassigned) [2-3] | 29 | 9.9 | 11 | 2700 | 
Cn1nc2c(=O)n(C3CC3)cnc2c1[C@](O)(c1cnc(C(F)(F)F)c(Cl)c1)C(F)(F)F (single isomer, unassigned) [5-3] | 18 | 1.7 | 28 | > 30000 | 
CCn1cc(C)c2c([C@H](N)c3ccc(C(F)(F)F)c(C#N)c3)n(C)nc2c1=O (single isomer, unassigned) [4-14] | 83 | 16 | 39 | > 100000 | 
CC[C@@](N)(c1ccc(C(F)(F)F)c(F)c1)c1c2ccn(C3CC3)c(=O)c2nn1C (single isomer, unassigned) [4-5] | 16 | 10 | 7 | 1300 | 
CCn1ccc2c([C@@](O)(CC)c3ccc(F)c(Cl)c3)n(C)nc2c1=O (single isomer, unassigned) [1-34] | 21 | 0.3 | 4.1 | 3900 | 
Cn1nc2c(=O)n(C3CC3)cnc2c1[C@](O)(c1ccc(C(F)(F)F)nc1)C(F)(F)F (single isomer, unassigned) [5-21] | 31 | 2.1 | 29 | > 30000 | 
CC[C@@](O)(c1ccc(F)c(Cl)c1)c1c2cnn(C3CC3)c(=O)c2nn1C (single isomer, unassigned) [2-17] | 8.4 | 1.7 | 9.5 | 2500 | 
Cn1nc2c(=O)n(C3CC3)ncc2c1[C@](N)(c1ccc(C(F)(F)F)c(Cl)c1)C1CC1 (single isomer, unassigned) [4-16] | 17 | 7.4 | 7.8 | 16000 | 
